Reference: patent publication US8088756B2, “Methods and compositions for oral delivery of FTS” (Concordia Pharmaceuticals, Inc., priority 2004, dated 2012)

What was measured:
[1] = Bioavailability of orally administered FTS formulated in corn oil (plasma FTS by LC/MS); type: in vivo, CD-1 mice; settings: CD-1, mouse, 40 mg/kg, mice, gavage, corn oil suspension
Experimental: (§1) FTS (40 mg) was dispersed in corn oil (10 ml). Aliquots of the resulting suspension were administered by gavage to CD-1 mice (eighteen) at a dose of […] (at a volume of 10 ml/kg of FTS suspension calculated for actual animal weight). Blood samples were collected in lithium heparin tubes via the retro-orbital plexus while under CO2/O2 anesthesia at 1, 2, 4, 8, 12 and 24 hours (3 animals at each time point) after dosing. Aliquots (100 μL) of plasma were mixed with water, pH 11 buffer solution and acetonitrile. After centrifugation, the supernatant was evaporated to dryness. The residue was resuspended in water/acetonitrile and centrifuged, and the supernatant was transferred to auto-sampler vials for FTS determination by liquid chromatography/mass spectrometry (LC/MS).
There was a rapid decrease to less than 3 ng/ml after 24 hours.

[2] = Bioavailability of orally administered FTS formulated in 0.5% aqueous carboxymethylcellulose (plasma FTS by LC/MS); type: in vivo, CD-1 mice; settings: CD-1, mouse, 40 mg/kg, mice, gavage, 0.5% aqueous carboxymethylcellulose suspension
Experimental: as §1, with “Mg)” for “mg)”, “0.5% aqueous carboxymethylcellulose” for “corn oil”, “12,” for “12”, “solution,” for “solution”, “re-suspended” for “resuspended”, “LC/MS.” for “liquid chromatography/mass spectrometry (LC/MS).”

[3] = tested on: Panc-1 cells; experiment: Inhibition of pancreatic tumor growth with orally administered FTS (subcutaneous Panc-1 implant); type: in vivo, Nude CD1-Nu Mice; settings: for average tumor weight: control 1.02 g
Experimental: Nude CD1-Nu Mice were implanted subcutaneously with 5.0×10^6 Panc-1 cells in 0.2 ml of PBS just above the right femoral joint. Eleven days after implantation, palpable tumors were observed. FTS was dispersed in 0.5% aqueous carboxymethylcellulose at a concentration of 5 mg/ml. On the eleventh day after implantation, mice were segregated into three groups and were given vehicle or FTS suspension by gavage. Group 1 (Controls, 6 mice) received 0.2 ml vehicle daily. Group 2 (20 mg/kg FTS, 7 mice) received 0.1 ml FTS suspension daily. Group 3 (40 mg/kg FTS, 6 mice) received 0.2 ml FTS suspension daily. Mice were treated for ten days, and were sacrificed. Tumors were excised and weighed.

[4] = Compatibility of FTS with pharmaceutical excipients (accelerated stability, HPLC assay); type: physicochemical; settings: 1:1 w/w mixture with FTS, 40° C./75% RH, loosely capped vials
Experimental: Physical mixtures (1:1 w/w) of FTS and representative pharmaceutical excipients commonly used in oral formulations were stored at 40° C./75% RH accelerated stress conditions for four weeks in loosely capped vials. Samples were assayed by HPLC at the 0, 2-week and 4-week time points.

[5] = Bioavailability of orally administered FTS to rats (plasma FTS by LC/MS); type: in vivo, Crl:CD(SD) (IGS)BR rats; settings: oral 200 mg/kg in corn oil (95%) and ethanol (5%)
Experimental: FTS was dissolved in a mixture of corn oil (95%) and ethanol (5%). Aliquots of the resulting solution were administered to Crl:CD(SD) (IGS)BR rats (twenty-four) at a dose of 200 mg/kg. Blood samples were collected in lithium-heparin-containing tubes via the retro-orbital plexus while under CO2/O2 anesthesia at 1, 2, 4, 8, 12 and 24 hours after dosing. Concentration of FTS at each time point was determined by LC/MS.

[6] = oral, dose 40 mg/ml (10 ml/kg), 1 hour
[7] = oral, dose 40 mg/ml (10 ml/kg), 2 hours
[8] = oral, dose 40 mg/ml (10 ml/kg), 24 hours
[9] = po, read-out: oral bioavailability compared to intra-peritoneal injection
[10] = 20 mg/kg FTS daily by gavage in 0.5% CMC for ten days
[11] = 40 mg/kg FTS daily by gavage in 0.5% CMC for ten days

SMILES: CC(C)=CCC/C(C)=C/CC/C(C)=C/CSc1ccccc1C(=O)O [FTS, farnesyl-thiosalicylic acid]
- concentration at 1 h [1, 6]: 2160 ng/mL
- concentration at 2 h [1, 7]: 1330 ng/mL
- concentration at 24 h [1, 8]: < 3 ng/mL
- bioavailability [1, 9]: 55%
- concentration at 1 h [2, 6]: 3380 ng/mL
- concentration at 2 h [2, 7]: 1590 ng/mL
- concentration at 24 h [2, 8]: < 3 ng/mL
- bioavailability [2, 9]: 69%
- tumor weight lower than control [3, 10]: 32%
- average tumor weight [3, 10]: 0.68 g
- tumor weight lower than control [3, 11]: 53%
- average tumor weight [3, 11]: 0.47 g
- HPLC assay, 0 weeks ([4]; 0 weeks, in % (unit assumed)): 97.75
- HPLC assay, 2 weeks ([4]; 2 weeks): 97.1%
- HPLC assay, 4 weeks ([4]; 4 weeks, in % (unit assumed)): 97.76
- concentration at 1 h ([5]; Crl:CD(SD) (IGS)BR, rat, plasma, 1 hour): 4450 ng/mL
- concentration at 2 h ([5]; Crl:CD(SD) (IGS)BR, rat, plasma, 2 hours): 4550 ng/mL
- concentration at 4 h ([5]; Crl:CD(SD) (IGS)BR, rat, plasma, 4 hours): 3050 ng/mL
- concentration at 8 h ([5]; Crl:CD(SD) (IGS)BR, rat, plasma, 8 hours): 2220 ng/mL
- concentration at 12 h ([5]; Crl:CD(SD) (IGS)BR, rat, plasma, 12 hours): 685 ng/mL
- concentration at 24 h ([5]; Crl:CD(SD) (IGS)BR, rat, plasma, 24 hours): 140 ng/mL
- oral bioavailability (in words) [5]: high level of oral bioavailability
